Source: patent US7910747B2, “Phosphonate and phosphinate pyrazolylamide glucokinase activators” (Bristol-Myers Squibb Company, priority 2006, dated 2011)

Tests used:
human glucokinase (GK) = biological target: T1, human glucokinase (GK) (Homo sapiens, UniProt P35557); experiment: Glucokinase tandem enzymatic assay; assay type: biochemical; settings: 12 mM glucose; for Emax: expressed as % of basal activation, EC50 could not be calculated from the activation curves, read-out: Maximal activation (%) Human Glucokinase @ 12 mM Glucose; for EC50: EC50 = concentration to achieve 50% of full activation
T1 construct: Full-length human hepatic GK (untagged) was expressed in BL21 STAR (DE3)pLysS cells; made in house; host or cells: E. coli BL21 STAR (DE3)pLysS
T1 sequence (P35557 1-466 isoform P35557-2): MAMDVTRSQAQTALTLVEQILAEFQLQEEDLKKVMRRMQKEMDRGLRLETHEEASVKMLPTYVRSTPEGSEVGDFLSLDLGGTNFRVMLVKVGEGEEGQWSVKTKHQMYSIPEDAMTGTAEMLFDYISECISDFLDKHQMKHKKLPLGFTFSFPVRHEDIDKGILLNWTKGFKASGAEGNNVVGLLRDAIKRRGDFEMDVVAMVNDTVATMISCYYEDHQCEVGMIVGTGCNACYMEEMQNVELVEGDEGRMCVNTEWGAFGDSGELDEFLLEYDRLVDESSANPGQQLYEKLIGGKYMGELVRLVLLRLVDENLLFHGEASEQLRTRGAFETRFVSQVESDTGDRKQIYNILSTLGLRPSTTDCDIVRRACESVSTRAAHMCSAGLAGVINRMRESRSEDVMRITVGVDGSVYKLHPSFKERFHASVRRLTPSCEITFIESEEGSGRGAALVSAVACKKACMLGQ
Protocol: Enzymatic activity of human glucokinase (GK) was measured by incubating GK, ATP, and glucose for discrete time periods followed by quenching with EDTA (ethylenediamine tetra-acetic acid). Relative amounts of product glucose-6-phosphate (G6P) were measured by then running a detection assay using G6P dehydrogenase and measuring the conversion of ThioNAD (thio-nicotinamide adenine dinucleotide) to ThioNADH (thio-dihydronicotinamide adenine dinucleotide) at a wavelength of 405 nm. This ‘uncoupled’ enzymatic reaction is denoted as the GK ‘tandem’ assay. Activation of GK by compounds can be assessed using this assay. The GK tandem assay protocol described below was followed using a range of activator compound concentrations from 0 to 100 μM at 5 and 12 mM of glucose. […] To initiate the GK reaction, magnesium-ATP (3 mM final concentration) was added to GK in buffer (final buffer conditions of 25 mM HEPES buffer, pH 7.1, containing 1 mM dithiothreitol and 5% DMSO). The total reaction volume was 20 μL. The reaction was allowed to proceed for ten minutes and was then quenched with 5 μL EDTA; 45 mM final). […] Absorbance was read, background glucose-6-phosphate levels were subtracted, after which activation was calculated as a percentage of control activity. Control activity was determined using GK in the presence of vehicle (DMSO), with background glucose-6-phosphate subtracted. Background glucose-6-phosphate was determined by pre-quenching GK with EDTA prior to reaction initiation with ATP.
Full-length human hepatic GK (untagged) was expressed in BL21 STAR (DE3)pLysS cells (Invitrogen) at 25° C. as described by Mookhtiar et al. (1). The protein was purified essentially as described by Lange (2) with a slight modification. […] The resulting pellet was resuspended in buffer, dialyzed, and applied directly to a Q-Sepharose (Sigma) column followed by elution with a linear 100-600 mM KCl gradient. GK containing fractions were pooled, dialyzed overnight vs. 25 mM Hepes pH 7.2/1 mM MgCl2/1 mM EDTA/0.1 M KCl/1 mM DTT, then dialyzed again with same buffer with 10% glycerol added.

[1] = test system: male DIO (diet-induced obese) C57BL/6J mice; experiment: Oral glucose tolerance test (OGTT) in DIO mice; assay type: in vivo; settings: 60 min before 2 g/kg oral glucose, DIO C57BL/6J mice; for Reduction in Glucose AUC at 30 mg/kg dose: 30 mg/kg oral
Protocol: […]. Mice were fasted overnight before use for experiments. A test compound or vehicle (either: 1) 40% PEG 400+10% Cremophore +50% water or 2) 10% dimethyl acetamide +10% ethanol +10% Cremophore +70% water) was given orally 60 min before oral administration of a glucose solution at a dose of 2 g/kg body weight (oral glucose tolerance test; OGTT). […].

SMILES	EC50 (human glucokinase (GK)) [nM]	further results
CCOP(=O)(Cc1csc(NC(=O)c2cc(CN3CCOC3=O)cc(OC)c2)n1)OCC [Example 65]	–	Emax (human glucokinase (GK)): 162%
CCOP(=O)(Cn1ccc(NC(=O)c2cc(Oc3ccc(S(C)(=O)=O)cc3)cc(O[C@@H](C)COC)c2)n1)OCC [Example 32]	65	Reduction in Glucose AUC ([1]; 30 μmol/kg oral): 79% @ 30 μmol/kg
CCOP(=O)(CSc1cnc(NC(=O)[C@H](CC2CCCC2)c2ccc(S(C)(=O)=O)cc2)s1)OCC [Example 22]	402	–
CCOP(=O)(Cc1nc(NC(=O)c2cc(Oc3ccc(S(C)(=O)=O)cc3)cc(O[C@@H](C)COC)c2)sc1Cl)OCC [Example 50]	22	–
CCOP(=O)(Cc1csc(NC(=O)c2ccc3c(c2)OCCO3)n1)OCC [Example 79]	–	Emax (human glucokinase (GK)): 133%
CCOP(=O)(Cc1csc(NC(=O)c2cc(OC(C)C)cc(O[C@H]3CCN(C(C)=O)C3)c2)n1)OCC [Example 112]	428	–
COC[C@H](C)Oc1cc(Oc2ccc(S(C)(=O)=O)cc2)cc(C(=O)Nc2nc(CP3(=O)OCCCO3)cs2)c1 [Example 169]	9	–
CCOP(=O)(Cc1csc(NC(=O)c2cc(OC(C)C)cc(O[C@H]3CCN(S(C)(=O)=O)C3)c2)n1)OCC [Example 113]	437	–
CCOP(=O)(Cc1csc(NC(=O)Cc2ccc(OC)cc2OC)n1)OCC [Example 74]	–	Emax (human glucokinase (GK)): 142%
COC[C@H](C)Oc1cc(Oc2ccc(S(C)(=O)=O)cc2)cc(C(=O)Nc2nc(CP(C)(=O)O)cs2)c1 [Example 56]	534	–
CCOP(=O)(Cc1csc(NC(=O)c2cc(OCC(O)c3ccccc3)cc(OC(C)C)c2)n1)OCC (centres unmarked) [Example 121]	–	Emax (human glucokinase (GK)): 126%
CCOP(=O)(/C=C/c1cnc(NC(=O)[C@H](CC2CCCC2)c2ccc(S(C)(=O)=O)cc2)s1)OCC [Example 35]	–	Emax (human glucokinase (GK)): 133%
CCOP(=O)(Cc1csc(NC(=O)c2cc(OCC(F)(F)c3ccccc3)cc(OC(C)C)c2)n1)OCC [Example 123]	–	Emax (human glucokinase (GK)): 135%
CCOP(=O)(Cc1csc(NC(=O)c2nn(CC3CC3)c3cc(S(C)(=O)=O)ccc23)n1)OCC [Example 86]	–	Emax (human glucokinase (GK)): 141%
CCOP(=O)(Cc1csc(NC(=O)c2cc(OC(C)C)cc(O[C@@H]3CCN(C(=O)OC)C3)c2)n1)OCC [Example 116]	469	–
CCOP(=O)(Cc1csc(NC(=O)c2cc(OC(C)C)cc(OC(C)C)c2)n1)OCC [Example 148]	178	Reduction in Glucose AUC at 30 mg/kg dose [1]: 60%
CCOP(=O)(Cc1csc(NC(=O)c2cc(Oc3ccc(S(C)(=O)=O)cc3)cc(O[C@@H](C)COC)c2)n1)OCC [Example 37]	34	Reduction in Glucose AUC at 30 mg/kg dose [1]: 88%
CCOP(=O)(Cc1csc(NC(=O)c2cc(O[C@@H](C)COC)cc(O[C@@H](C)Cc3ccccc3)c2)n1)OCC [Example 145]	24	Reduction in Glucose AUC at 30 mg/kg dose [1]: 71%
CCOP(=O)(Cc1csc(NC(=O)c2cc(OCCSC)cc(O[C@@H](C)COC)c2)n1)OCC [Example 134]	476	–
CCOP(=O)(Cn1ccc(NC(=O)c2cc(O[C@@H](C)COC)cc(O[C@@H](C)Cc3ccccc3)c2)n1)OCC [Example 33]	26	–
CCOP(=O)(Cc1csc(NC(=O)c2cc(O[C@@H](C)CO)cc(O[C@@H](C)Cc3ccccc3)c2)n1)OCC [Example 137]	21	–
CCOP(=O)(Cn1ccc(NC(=O)c2cc(OCC(F)(F)c3ccccc3)cc(OC(C)C)c2)n1)OCC [Example 122]	23	–
CCO[P@](C)(=O)Cc1csc(NC(=O)c2cc(Oc3ccc(S(C)(=O)=O)cc3)cc(O[C@@H](C)COC)c2)n1 (single isomer, unassigned) [Example 54]	49	Reduction in Glucose AUC at 30 mg/kg dose [1]: 68-82%
CCOP(=O)(Cc1ccc(NC(=O)c2cc(Oc3ccc(S(C)(=O)=O)cc3)cc(O[C@@H](C)COC)c2)nc1)OCC [Example 29]	98	Reduction in Glucose AUC at 30 mg/kg dose [1]: 66-78%
CCOP(=O)(Cc1nc(NC(=O)c2cc(Oc3ccc(S(C)(=O)=O)cc3)cc(O[C@@H](C)COC)c2)sc1Br)OCC [Example 51]	15	–
CCOP(=O)(Cc1csc(NC(=O)c2cc(OCCCS(C)(=O)=O)cc(O[C@@H](C)COC)c2)n1)OCC [Example 139]	467	–
CCOP(=O)(CS(=O)(=O)c1cnc(NC(=O)[C@H](CC2CCCC2)c2ccc(S(C)(=O)=O)cc2)s1)OCC [Example 23]	–	Emax (human glucokinase (GK)): 150%
CCOP(=O)(Cc1cnc(NC(=O)[C@H](CC2CCOCC2)c2ccc(S(=O)(=O)C3CC3)cc2)cn1)OCC [Example 44]	564	Reduction in Glucose AUC at 30 mg/kg dose [1]: 62-80%
